Laboratory results from patent publication US6281250A, “Retinyl ethers, derivatives and analogues and inhibition of breast carcinogenesis” (Southern Research Institute, priority 1999, dated 2001).
Where “and” joins values, the source holds several entries; their conditions need not be identical. Equal values may be shown once. Entries after “also recorded” stand apart in the source; their conditions may differ. Read-outs that look alike come from different tables or passages of the source.

Columns and labels:
[1] = biological target: T1, cellular retinol-binding protein (CRBP) (Rattus norvegicus, UniProt P02696); assay: Binding to cellular retinol-binding protein (CRBP): inhibition of [3H]retinol binding, sucrose density-gradient sedimentation; details: for Percent Inhibition of [3H] Retinol Binding (CRBP Assay): 150-fold molar excess of unlabelled test retinoid, rat testes cytosol; for binding to CRBP, in words: 150-fold molar excess
T1 construct: portions of rat testes cytosol (1 mg protein) were incubated; from tissue; host or cells: rat testes cytosol
T1 sequence (P02696 1-135): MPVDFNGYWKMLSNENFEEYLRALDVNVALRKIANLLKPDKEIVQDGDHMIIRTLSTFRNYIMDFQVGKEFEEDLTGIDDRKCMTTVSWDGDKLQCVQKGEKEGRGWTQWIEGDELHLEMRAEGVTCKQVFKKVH
Protocol: Binding affinities of the retinyl ethers for CRBP were determined by sucrose, density-gradient, sedimentation analysis as described before (Sani et al., 1980). Briefly, portions of rat testes cytosol (1 mg protein) were incubated with [^3 H]retinol (50 pmol) in the presence or absence of a 150-fold molar excess of unlabeled retinol or the test retinoids. The preparations after dialysis were analyzed by 5-20% sucrose density gradient sedimentation. For measuring the competitive binding of the unlabeled retinoids, inhibition of [^3 H]retinol binding to CRBP by unlabeled retinol is regarded as 100%. The mean and standard deviation calculated from the relative inhibitions obtained from multiple determinations were used as the relative binding affinities of the various retinyl ethers.
The group of retinyl benzyl ethers has now been evaluated for binding to CRBP. Binding to CRBP, as defined for Table I, at approximately 60% or higher was rated as strong; at 40-60%, as moderate; at 20-40%, as low.
^a Per cent inhibition of binding of tritiated retinol to CRBP by a
150-fold molar excess of the unlabelled test retinoid (Sani et al., 1980,

[2] = tested on: TPA-induced ornithine decarboxylase (ODC); assay: Inhibition of TPA-induced ornithine decarboxylase (ODC) in mouse skin; type: in vivo
Excerpt: (§1) Earlier, several alkyl, alkenyl, or alkynyl retinyl ethers had been assayed for inhibition of TPA-induced ornithine decarboxylase (ODC) in mouse skin and for the suppression of DMBA-initiated and TPA-promoted mouse-skin papillomas (Shealy et al., 1997). In comparison with control groups, these retinyl ethers were ineffective. Only a few representatives of the benzyl ethers were selected for tests in these assays. […] Because of these and the earlier results (Shealy et al., 1997), testing of retinyl benzyl ethers in the ODC and papilloma assays was discontinued.

[3] = tested on: mouse-skin papillomas; assay: Suppression of DMBA-initiated and TPA-promoted mouse-skin papillomas; type: in vivo; details: mouse-skin papilloma assay
Excerpt: as §1

[4] = tested on: MNU-induced mammary cancer; assay: Short-term (90-day) assay against MNU-induced mammary cancer in rats (Expts. 2 and 3); type: in vivo, rat (female Sprague-Dawley); details: for effectiveness compared with RTMBE: 90-day assays, MNU-induced mammary carcinogenesis; for reductions in the number of tumors per rat: 90-day study, 1 and 2 mmol/kg of diet; for effectiveness in reducing the number of tumors per rat / Tumors, % of Control Gp. / Tumors, Avg. No. per Rat: 90 days; for effectiveness in reducing the number of tumors per rat: in feed
Protocol: (§2) Retinoid diet mixtures were stored at 4° C. […] The animals were palpated for mammary tumors 2×/week. […] Also, five rats/group had complete necropsies performed.
The 2,5-dimethoxybenzyl (3b) and 4-methoxybenzyl (3e) ethers were tested in the same way in a 90-day study. […] The 2,5-dimethybenzyl (3c) and the 2,3-dimethoxybenzyl (3h) ethers, together with RTMBE for comparison, were likewise assayed according to the same methodology. Prior to the beginning of this study, specimens of the retinoid-diet mixtures were placed under the conditions that were employed during the storage and feeding of RTMBE, 3c, and 3h. The specimens were extracted with butanol, and the extracts were analyzed by HPLC. […] Testing of 3c and 3h was discontinued, but the RTMBE study was continued until the duration of the study was 180 days (Table 6). The results were similar to those of Experiment 1 (Table 3). The averages of the number of tumors per rat were reduced by 32-35%; in addition, the averages of the tumor weights per rat was 56-70% lower than the average tumor burden of the control group.
and was continued until the studies of 3b, 3c, 3e, and 3h were terminated
90 days after administration of MNU. The RTMBE experiment was continued
until 180 days after MNU administration (Table VI).
kilogram of Teklad diet.

[5] = Stability of retinyl ethers in storage and in solution; type: physicochemical; details: weakly acidic ethanol solution
[6] = Mammary tissue-to-plasma concentration after intravenous dosing; type: in vivo, rat (female Sprague-Dawley); details: rat, 5 mg/kg i.v., after 24 hr, read-out: ratio of mammary tissue-to-plasma concentrations
[7] = in vivo; details: for NOAEL: mouse, in vivo, po
Protocol: Toxicological evaluations involving measurement of body weights and observations of clinical signs characteristic of retinoid toxicity were accomplished as previously described (Lin et al., 1996).
RTMBE and two of its analogues, together with RME and RPE, were selected for estimation of their toxicities to mice when administered during 28-29 days by gavage in corn oil (Table 8). Mice were evaluated for changes in body weight and for signs of clinical retinoid toxicity (hypervitaminosis A) including alopecia, scaly skin, and limping. In the first experiment, these retinyl ethers were given at equimicromolar doses at three dose levels. The retinyl benzyl ethers (RTMBE, 3c, and 3e) were then tested at higher doses in a second experiment.

[8] = Toxicity observations in rats receiving retinoids in feed; type: in vivo, rat (Sprague-Dawley); details: administered in feed
Protocol: as §2

[9] = biological target: T1, cellular retinol-binding protein (CRBP); details: Sani, 1993; Sani et al., 1996; Shealy et al., 1997; cited from earlier work
[10] = tested on: serum retinol-binding protein (RBP); details: 150-fold molar excess; Sani et al., 1996; cited from earlier work
[11] = tested on: NADPH-requiring enzymes in rat liver microsomes; details: literature; cited from earlier work
[12] = rat, in feed; Shealy et al., 1997; cited from earlier work
[13] = cited from earlier work; for stability in refluxing ethanol: 24 hours or similar, protected from light and air, Shealy et al, 1997
[14] = tested on: carcinogen-induced mammary cancer; details: cited from earlier work; for suppression of MNU-induced mammary cancer: Thompson et al., 1978 / Shealy et al.
[15] = Shealy et al., 1997, cited from earlier work; for toxicity in mammary carcinogenesis study: 2 mmol/kg of diet; for toxic dose in the feed after 90 days: Sprague-Dawley rats
[16] = tested on: serum retinol-binding protein (RBP); assay: Binding to serum retinol-binding protein (RBP): inhibition of [3H]retinol binding; details: % of that of retinol
[17] = tested on: MNU-induced mammary tumors
Protocol: The methods employed in the preparation of diets, analyses of retinoid-dietspecimens, and dietary treatment with retinoids of MNU-induced mammary carcinogenesis in Sprague-Dawley rats were described previously (Grubbs et al., 1995; Shealy et al., 1997). Briefly, diets were prepared by mixing each retinoid with Wayne meal or Teklad (4%) mash diet. For each kg of diet, the retinoid was dissolved in 12 g ethanol, 19 g trioctanoin, 0.05 mL Tenox 20, and 0.05 mL d,1-alpha tocopherol prior to incorporation into the feed using a Patterson-Kelly blender. Retinoid diet mixtures were stored at 4° C. Portions of each retinoid-diet mixture were analyzed for the added retinoid to ensure homogeneity. Female Sprague-Dawley rats received an i.v. injection of MNU (45 mg/kg body weight) at 50 days of age. Diet supplementation with retinoids was initiated three days after MNU. A group of rats receiving retinyl acetate (1 mmol/kg of diet) served as the positive control. The animals were palpated for mammary tumors 2×/week. At termination of the study, mammary tumors were processed for histological classification. Also, five rats/group had complete necropsies performed. The tissues were examined histologically for pathological lesions as additional toxicological evaluation. Extracts of the liver and mammary gland (5 rats/group) were analyzed by HPLC for retinyl palmitate and/or for the dosed retinoid. Statistical analyses of cancer incidence and latency were determined using logrank analysis, while differences in cancer multiplicity were determined employing the Armitage test.
^b Average number of palpable mammary tumors.
^c Diet supplementation with retinoids was initiated at 52 days of age
and was continued until the study was terminated 180 days after
administration of MNU. Treatment with retinoids is stated in millimoles of
retinoid per kilogram of diet (Wayne meal).
^d Female Sprague-Dawley rats received one i.v. injection of MNU (50
mg/kg of body weight) at 50 days of age.

[18] = Shealy et al., 1997; cited from earlier work
[19] = oral gavage in corn oil, 28-29 days

| SMILES | Percent Inhibition of [3H] Retinol Binding (CRBP Assay) [1] [%] | activity in ODC assay [2] | inhibition of papilloma formation [3] | binding to CRBP, in words [1] | effectiveness compared with RTMBE [4] | reductions in the number of tumors per rat [4] | effectiveness in reducing the number of tumors per rat [4] | Tumors, % of Control Gp. ([4]; Expt. 2, 0.5 mmol/kg diet) [%] | Tumors, Avg. No. per Rat ([4]; Expt. 2, 0.5 mmol/kg diet) | Tumors, % of Control Gp. ([4]; Expt. 2, 1 mmol/kg diet) [%] | Tumors, Avg. No. per Rat ([4]; Expt. 2, 1 mmol/kg diet) | Tumors, % of Control Gp. ([4]; Expt. 2, 2 mmol/kg diet) [%] | Tumors, Avg. No. per Rat ([4]; Expt. 2, 2 mmol/kg diet) | Kp at 24 h [6] | NOAEL [7] [mg/kg/day] | Toxic Dose [7, 19] | accumulation of retinyl palmitate in the liver [12] | stability in refluxing ethanol [13] | suppression of MNU-induced mammary cancer ([14]; rats, 1997) | toxicity in mammary carcinogenesis study [15] | other results |
| --- | --- | --- | --- | --- | --- | --- | --- | --- | --- | --- | --- | --- | --- | --- | --- | --- | --- | --- | --- | --- | --- |
| COc1ccc(COC/C=C(C)/C=C/C=C(C)/C=C/C2=C(C)CCCC2(C)C)cc1OC [Compound 3a, Retinyl 3,4-Dimethoxybenzyl Ether] | 62 ± 8 | not active in the ODC assay | ineffective in inhibiting papilloma formation | – | – | – | – | – | – | – | – | – | – | – | – | – | – | – | – | – | – |
| COc1ccc(OC)c(COC/C=C(C)/C=C/C=C(C)/C=C/C2=C(C)CCCC2(C)C)c1 [Compound 3b, Retinyl 2,5-Dimethoxybenzyl Ether] | 59 ± 13 | not active in the ODC assay | ineffective in inhibiting papilloma formation | good binder to CRBP | less effective than was RTMBE | 26-52% | effective | 77 | 2.7 | 48 | 1.7 | 74 | 2.6 | 38 ± 20 | – | – | – | – | – | – | stability in weakly acidic ethanol (formation of anhydroretinol, 4) [5]: 4 is isolated |
| COc1ccc(COC/C=C(C)/C=C/C=C(C)/C=C/C2=C(C)CCCC2(C)C)cc1 [Compound 3e, Retinyl 4-Methoxybenzyl Ether] | 7 ± 7 | – | – | not conducive to CRBP binding | less effective than was RTMBE | 37-49% | effective | 71 | 2.5 | 63 | 2.2 | 51 | 1.8 | 41 ± 14 | 433 | > 433 mg/kg day | – | – | – | – | clinical toxicity (alopecia, scaly skin, limping) ([7]; oral gavage, up to highest dose (RTMBE and RMoBE-4: Expt. 2)): No evidence of clinical toxicity; toxicity in MNU-mammary cancer studies [8]: not toxic in the mammary carcinogenesis studies |
| COC/C=C(C)/C=C/C=C(C)/C=C/C1=C(C)CCCC1(C)C [RME, retinyl methyl ether] | – | – | – | – | – | – | – | – | – | – | – | – | – | – | – | > 20 mg/kg day and < 40 mg/kg day | a toxic effect produced by efficacious amounts | only minor degradation | suppress | RME was (at 2 mmol/kg of diet) | toxic dose from body-weight data [7, 19]: < 40 mg/kg/day; binding to CRBP [9]: bind to cellular retinol-binding protein (CRBP); inhibition of binding of tritiated retinol (RBP), relative to retinol [10]: 100%; conversion (demethylation) to retinol or its analogue [11]: demethylated to retinol in rat liver; also recorded: converted, respectively, to retinol or its TMMP analogue; also recorded: demethylation of RME by microsomal oxidases to retinol; suppression of 7,12-DMBA-induced mammary cancer ([14]; rats, Grubbs et al, 1977): suppress; toxic dose in the feed after 90 days [15]: > 1 mmole/kg of diet and < 2 mmole/kg of diet |
| C#CCOC/C=C(C)/C=C/C=C(C)/C=C/C1=C(C)CCCC1(C)C [RPE, retinyl propynyl ether] | – | – | – | – | – | – | – | – | – | – | – | – | – | – | 43 | > 43 mg/kg day | did not cause; also recorded: some increase in retinyl palmitate in the liver | intramolecular cyclization | inhibited the development of MNU-induced mammary cancer; also recorded: more effective than retinyl acetate | not toxireas | inhibition of [3H] retinol-binding (RBP), relative to that of retinol [16]: 70%; reduction of average number of tumors per rat ([17]; after 90 days, 2 mmol/kg diet (Table 7)): 44%; reduction in the average number of tumors per rat ([17]; by the end of the 180-day study, 2 mmol/kg diet (Table 7)): 16%; % of Control Gp., Day 90 ([17]; with MNU, 0.5 mmol/kg diet): 74%; % of Control Gp., Day 180 ([17]; with MNU, 0.5 mmol/kg diet): 97%; Avg No. Per Rat (palpable mammary tumors), Day 90 ([17]; with MNU, 0.5 mmol/kg diet): 1.7; Avg No. Per Rat (palpable mammary tumors), Day 180 ([17]; with MNU, 0.5 mmol/kg diet): 6.2; % of Control Gp., Day 90 ([17]; with MNU, 2 mmol/kg diet): 56%; % of Control Gp., Day 180 ([17]; with MNU, 2 mmol/kg diet): 84%; Avg No. Per Rat (palpable mammary tumors), Day 90 ([17]; with MNU, 2 mmol/kg diet): 1.3; Avg No. Per Rat (palpable mammary tumors), Day 180 ([17]; with MNU, 2 mmol/kg diet): 5.4; Avg No. Per Rat (palpable mammary tumors), Day 180 ([17]; without MNU, 0.5 mmol/kg diet): 0; Avg No. Per Rat (palpable mammary tumors), Day 180 ([17]; without MNU, 2 mmol/kg diet): 0; accumulation in mammary tissue [12]: accumulated in rat mammary tissue; recovery from the feed of rats [18]: recoverable from the feed of rats; stability in the solid state and in solution ([13]; Shealy et al., 1996, 1997): slowly undergoes an intramolecular Diels-Alder reaction; reduction of average number of tumors per rat ([14]; earlier 90-day study, 2 mmol/kg of diet, MNU, Shealy et al., 1997): 48%; toxic dose in the feed after 90 days [15]: > 2 mmole/kg of diet |
